Read-outs that look alike come from different tables or passages of the source. Values belong to the compound of their own block, whether it stands above or below them.
How the values were obtained:
LTD4 receptor = target: T1, LTD4 receptor (Cavia porcellus, UniProt Q2NNR5); test: Leukotriene D4 (LTD4) binding assay (3H-LTD4, guinea pig lung membrane fraction); conditions: for IC50: guinea pig lung membrane, 3H-LTD4, 25° C., 1 hour
T1 construct: membrane fraction prepared from the guinea pig lung; from tissue; host or cells: guinea pig lung membrane fraction
T1 sequence (Q2NNR5 1-340): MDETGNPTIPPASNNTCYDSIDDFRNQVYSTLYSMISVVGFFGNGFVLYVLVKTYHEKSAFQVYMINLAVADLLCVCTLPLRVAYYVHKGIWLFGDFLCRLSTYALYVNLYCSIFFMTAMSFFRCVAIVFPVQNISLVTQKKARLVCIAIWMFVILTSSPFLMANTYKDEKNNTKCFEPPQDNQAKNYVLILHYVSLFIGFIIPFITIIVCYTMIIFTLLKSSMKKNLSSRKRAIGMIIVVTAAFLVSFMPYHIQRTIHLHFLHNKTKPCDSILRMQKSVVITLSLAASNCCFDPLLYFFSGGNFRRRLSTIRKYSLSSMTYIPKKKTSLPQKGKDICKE
Description: 1) Leukotriene D4 (LTD4) binding assay
First, 0.2 pmol of ^3 H-LTD4 and 100 μg of the membrane fraction prepared from the guinea pig lung were incubated at 25° C. for 1 hour and then the reaction mixture was filtered through a glass filter. The radioactivity of ^3 H-LTD4 bound to the membrane remaining on the glass filter was determined and this value was regarded as total binding (total).
Similarly, 100 μg of the membrane fraction was incubated with 0.2 pmol of ^3 H-LTD4 in the presence of a large excess of cold LTD4 (0.1 nmol) at 25° C. for 1 hour and the radioactivity of ^3 H-LTD4 bound to the membrane was determined and regarded as nonspecific binding (NSB).
Specific binding (SB) of ^3 H-LTD4 was calculated according to expression (1).
To investigate the effect of the test substance on LTD4 receptor binding, the test substance was added at the determination of total binding and the total binding in the presence of the test substance (total') was determined. The percent inhibition was calculated according to expression (2).
(total-total')/SB×100 (2)

[1] = test system: endogenous LT-induced airway contractile response in guinea pigs; test: Effect on endogenous leukotriene (LT)-induced experimental asthma; assay type: in vivo; conditions: guinea pig; for ED50: Cavia porcellus
[2] = test system: antigen-induced airway contractile response in guinea pigs; test: Effect on experimental asthma (antigen-induced airway contractile response); assay type: in vivo; conditions: guinea pig
Description: (4) Effect on experimental asthma
The airway contractile response to intravenous administration of an antigen (benzylpenicilloyl-bovine serum albumin) to guinea pigs passively senstitized with anti-benzylpenicilloyl-bovine gamma globulin guinea pig serum was determined by the Konzett-Rossler method.
The test substance suspended in 0.5% methylcellulose was administered orally and 3 hours later, the airway contractile response caused by antigen-antibody reaction was determined. With the response on complete obstruction of the airway cannula with a clamp taken as 100% contraction, the maximal airway contractile response (expressed in percent) caused by antigen antibody reaction was determined. From this value, the percent inhibition, relative to the control, by the test substance was determined.

Structure (SMILES): CCCCCCOc1ccc(C(=O)Nc2ccccc2Sc2ccccc2-c2nnn[nH]2)cc1 [Example 7, N-[2-[2-(1H-Tetrazol-5-yl)phenylthio]phenyl]-4-hexyloxybenzamide]
- IC50 (LTD4 receptor): 180 nM
- ED50 ([1]; po, 3 hours before antigen, read-out: Endogenous LT-induced experimental asthma p.o. ED50): 0.111 mg/kg
- ED50 ([2]; Cavia porcellus, po, 3 hours before antigen): 3.52 mg/kg

Structure (SMILES): O=C(O)COc1ccc(C(=O)Nc2ccccc2Sc2ccccc2-c2nnn[nH]2)cc1 [Example 6, 4-[2-[2-(1H-Tetrazol-5-yl)phenylthio]phenylcarbamoyl]phenoxyacetic acid]
- inhibition at 10 µM (LTD4 receptor; at 10^-5 M): 28.9%
- Endogenous LT-induced experimental asthma p.o. inhibition (%) ([1]; at 0.1 mg/kg): 36.2%
- Experimental asthma p.o. inhibition (%) ([2]; at 30 mg/kg): 37.9%

Structure (SMILES): CCCc1c(OCC(O)COc2ccc3c(=O)cc(C(=O)O)oc3c2CCC)ccc(C(C)=O)c1O (stereo not drawn) [C, reference compound]
- IC50 (LTD4 receptor): 3820 nM
- ED50 ([1]; iv, read-out: Endogenous LT-induced experimental asthma ED50 (i.v.)): 0.2 mg/kg

Structure (SMILES): O=C(Nc1ccccc1Sc1ccccc1-c1nnn[nH]1)c1ccc(OCCCCc2ccccc2)cc1 [Example 4, N-[2-[2-(1H-Tetrazol-5-yl)phenylthio]phenyl]-4-(4-phenylbutoxy)benzamide]
- IC50 (LTD4 receptor): 35.8 nM
- Endogenous LT-induced experimental asthma p.o. inhibition (%) ([1]; at 30 mg/kg): 30.9%

Further lines, with some results ahead:

- IC50 (LTD4 receptor): 18200 nM
Structure (SMILES): CCN(CC)C(=O)COC(=O)COc1ccc(C(=O)Nc2ccccc2Sc2ccccc2-c2nnn[nH]2)cc1 [Example 105, N,N-Diethylcarbamoylmethyl 4-[2-[2-(1H-tetrazol-5-yl)phenylthio]phenylcarbamoyl]phenoxyacetate]
- Endogenous LT-induced experimental asthma p.o. inhibition (%) ([1]; at 0.3 mg/kg): 29.4%
- Experimental asthma p.o. inhibition (%) ([2]; at 10 mg/kg): 87.9%

- IC50 (LTD4 receptor): 22 nM
Structure (SMILES): CCCC/C=C/COc1ccc(C(=O)Nc2ccccc2Sc2ccccc2-c2nnn[nH]2)cc1 [Example 14, (E)-N-[2-[2-(1H-Tetrazol-5-yl)phenylthio]phenyl]-4-(2-heptenyloxy)benzamide]
- Endogenous LT-induced experimental asthma p.o. inhibition (%) ([1]; at 30 mg/kg): 58.3%

- IC50 (LTD4 receptor): 3340 nM
Structure (SMILES): CCCCOC(=O)COc1ccc(C(=O)Nc2ccccc2Sc2ccccc2-c2nnn[nH]2)cc1 [Example 67, Butyl 4-[2-[2-(1H-tetrazol-5-yl)phenylthio]phenylcarbamoyl]phenoxyacetate]
- Endogenous LT-induced experimental asthma p.o. inhibition (%) ([1]; at 0.3 mg/kg): 61.2%
- Experimental asthma p.o. inhibition (%) ([2]; at 10 mg/kg): 82.6%
